Legend:
[1] = Peptide cyclization kinetics with model peptide CGK-5; details: 500 μM CGK-5, 550 μM linker, RT; for cyclization of CGK-5 (in words): ABC buffer pH 7.4, 1 mM TCEP, 2 h, LC-MS; for half-life of the cyclization reaction with CGK-5: ammonium bicarbonate (ABC) buffer, TCEP, HPLC, one-phase association, mean ± 95% CI, at least three independent experiments
Text: While pCAmCP and mCAmCP gave efficient cyclization of the peptide fusion of sfGFP, we looked to further investigate the specificity of the reaction using peptide kinetic assays. To do this, we first established reactivity of the compounds with a model peptide (CGK-5, Figures 3A and S16) that was composed of two cysteines flanking a region tuned for solubility in buffer (GGKGG) and with a tryptophan residue on the C-terminus for UV absorbance. […] To test the specificity of the reaction for the N-terminal cysteine, we synthesized a peptide analogue (CGK-5Abu, Figures 3D–F and S17) that contained 2-aminobutyric acid in place of the N-terminal cysteine. […] Since these reactions occurred at 500 μM of peptide to allow for analysis on the HPLC, we envision this difference will likely be exaggerated when using lower peptide/protein concentrations. Although it is unlikely at neutral pH, the chloroacetamide moiety can possibly react with nucleophilic amino acids other than cysteine. To defuse this concern, we designed a peptide containing a variety of possibly nucleophilic residues (serine, arginine, tyrosine, histidine, and lysine, but not an internal cysteine) adjacent to the N-terminal cysteine (BCP, Figure S18) and let the peptide react with pCAmCP or mCAmCP. […] On the other hand, peptides that contained an internal cysteine were nearly completely reacted with the chloroacetamide after less than 2 h at the same concentrations (Figure 3B,C). This indicates high specificity for the chloroacetamide reacting with an internal cysteine in comparison to other nucleophilic residues at pH 7.4. […] It could be that the side reaction with TCEP may help mask the chloroacetamide after long incubation periods to prevent it from reacting with less reactive nucleophiles.
The peptide (CGK-5 or CGK-5Abu, 5 mM stock in water) was diluted to 500 μM in ammonium bicarbonate buffer (50 mM, pH 7.5) containing 1.2 mM TCEP. Following dilution of the peptide, the organic linker (10 mM in DMSO) was added to a final concentration of 550 μM. The reaction mixture was incubated while being shaken at RT. At each time point (5, 10, 15, 30, 45, 60, 120, and 240 min), 5 μL of reaction mixture was removed, and the reaction was quenched by the addition of 5 μL of 100 mM cysteine. Following dilution with 20 μL of water, the sample was then analyzed on a Shimadzu HPLC with an LCMS-2020 mass spectrometer attached (10–40% ACN gradient in H2O over 6 min, 0.1% formic acid, 1 mL/min flow rate, Shimadzu C18 250 × 4.6 mm, 5 μm). Peaks corresponding to the cyclized and unreacted forms were then integrated on the Shimadzu LabSolutions software, plotted in GraphPad Prism, and fitted using a one-phase association fitting parameter to determine reaction half-lives.

[2] = system: CA5C phages (N-terminal cysteines displayed on pIII); assay: Biotin pulldown (capture) assay of CA5C phages; details: 100 μM linker, RT; Biotin-CBT, streptavidin beads; vs control phage AAKAA; n = 3
Text: Following the characterization of the linkers for efficient cyclization of peptides, we then looked to characterize pCAmCP and mCAmCP for reactivity toward phage proteins. Some previously developed linkers that generate macrocyclic peptide libraries on phage hinder phage infectivity, which is likely from modifying cysteines within phage coat proteins.[26]−[28] To test if this occurred in the novel linkers, we performed toxicity assays that reacted the phages with different concentrations of linker (50–200 μM), temperatures (22 or 37 °C), and reaction times (3 or 24 h). […] We expressed phages with a CA5C peptide on the N-terminus of pIII. […] Following the precipitation of the phages, they were again reduced with TCEP and were incubated with a Biotin-CBT compound to label any unreacted N-terminal cysteines with biotin, allowing for phage capture on streptavidin beads (Figure 4B). […] Comparison with capture levels of unreacted phages indicated at least 80% and 70% reactivity of pCAmCP and mCAmCP with the CA5C phages, respectively. […]
The purified CA5C phages (10^11 to 10^12 cfu, 98 μL) in binding buffer were incubated with 1 mM TCEP at 37 °C for 30 min. […] Percent phages captured was calculated by (phages input – phages in supernatant)/phages input × 100.

SMILES | cyclization of CGK-5 (in words) [1] | half-life of the cyclization reaction with CGK-5 [1] [min] | percent of phages captured after linker reaction (in words) [2]
N#Cc1ncc(NC(=O)CCl)cn1 [pCAmCP, 2-chloro-N-(2-cyanopyrimidin-5-yl)acetamide] | nearly complete cyclization of the peptide after 2 h | 23 ± 5 | reduced to levels similar to those of a control phage that lacked N-terminal cysteines
N#Cc1nccc(NC(=O)CCl)n1 [mCAmCP, 2-chloro-N-(2-cyanopyrimidin-4-yl)acetamide] | nearly complete cyclization of the peptide after 2 h | 13 ± 3 | reduced to levels similar to those of a control phage that lacked N-terminal cysteines

Reference: publication PMC11744668, “2-Cyanopyrimidine-Containing Molecules for N-Terminal Selective Cyclization of Phage-Displayed Peptides” (ACS Chemical Biology, 2025)
